Laboratory results reported in US20190292605A1, “Biomarkers of Response to Cyclin D-CDK4/6 Targeted Therapies in Cancer” (The Regents of the University of California, priority 2014, published 2019).
Where two headings read alike, the source gives them in different places.

Columns and labels:
[1] = system: human melanoma cell lines; experiment: response to palbociclib treatment in 48 melanoma cell lines; format: cell-based
Source text: Melanoma, a malignancy originating in pigment-producing melanocytes, is generally resistant to conventional treatments such as radiotherapy or chemotherapy. Molecular targeted therapeutics against BRAF and MEK have shown marked efficacy for patients with metastatic melanoma. However these targeted therapies have a limited duration of response. […] Our main goal in this study was to evaluate the therapeutic potential of palbociclib in a large panel of human melanoma cell lines to identify potential biomarkers of sensitivity and resistance. Material and Methods: We evaluated the response palbociclib treatment in 48 melanoma cell lines. A comprehensive biomarker screen was performed using mutation and gene expression (Agilent) data. The mechanism of action of the drug, phospho-Rb and senescence, was investigated by western blot (WB) analysis. Effects on the cell cycle and apoptosis were study by flow cytometry.

[2] = system: 17 gastric and 27 colon cancer cell lines; experiment: dose response in gastric and colon cancer cell line panels; format: cell-based; details: Homo sapiens; 14 of the 44 gastric and colon cancer cell lines tested; read-out: anti-proliferative activity (concentration)
Experimental: Methods: Panels of 17 gastric and 27 colon cancer cell lines were exposed in vitro to palbociclib over various concentrations to generate dose response curves. Analysis of variance (ANOVA) was used to identify differentially expressed genes between sensitive and resistant cell lines. Genes identified by ANOVA and effects of palbociclib on pRB were analyzed via western blot.

colon cancer = details: patients; cited from earlier work

CC(=O)c1c(C)c2cnc(Nc3ccc(N4CCNCC4)cn3)nc2n(C2CCCC2)c1=O [palbociclib]
IC50 ([1]; 48 melanoma cell lines, read-out: IC50, lower end of range across melanoma cell lines): 28 nM
IC50 ([1]; 48 melanoma cell lines, read-out: IC50, upper end of range across melanoma cell lines): > 1000 nM
IC50 ([1]; subset (14/48) of melanoma cell lines, clinically achievable concentrations, read-out: IC50 of cell lines classified as sensitive): < 150 nM
IC50 [2]: < 150 nM

CCN1CCN(Cc2ccc(Nc3ncc(F)c(-c4cc(F)c5nc(C)n(C(C)C)c5c4)n3)nc2)CC1 [LY2835219]
clinical benefit (colon cancer): beneficial in colon cancer
